As usually defined, the inhibition is how much of the control response was suppressed.

The experiment deals with primary human hepatocytes. Kind of experiment: Glucagon-stimulated glycogenolysis in primary human hepatocytes. Type of experiment: cell-based. The following applies: 1 h. Here is the method:
Figure 1 GRA1 inhibits glucagon-mediated glycogenolysis in vitro and ex-vivo. (A) The chemical structure of GRA1. (B) Dose-dependent inhibition of glucagon-stimulated glycogenolysis in human hepatocytes. The cells were pretreated for 3 h with 200 nM insulin and then challenged with 2 nM glucagon with vehicle (Veh, medium with 1% DMSO) or 0.3–10 µM GRA1. Glycogen content was measured after incubating for 1 h. *p<0.05 and **p<0.01 vs. glucagon+vehicle alone. (C) Inhibition of glucagon-stimulated glycogenolysis in perfused liver prepared from the hGCGR mouse. Livers were perfused with Ringers solution containing 6.7 mM [2-^13C]pyruvate while ^13C content (indicative of accumulated [^13C]glycogen) was monitored dynamically by nuclear magnetic resonance imaging. At time = −22 min, 0.1–3.0 uM GRA1 or vehicle was added to the perfusate; 50 pM glucagon or vehicle was added at time 0. The data are means ±SEM.
Transfected Chinese hamster ovary (CHO) cell lines were acquired and maintained as previously described, [20]. These included separate cell lines stably expressing human GCGR (hGCGR), mouse GCGR, rhesus GGCR, glucose-dependent insulinotropic peptide receptor (GIPR), GLP-1 receptor (GLP-1R), pituitary adenylate cyclase-activating polypeptide receptor type 1 (PAC1R), and vasoactive adenylate cyclase-activating polypeptide receptor type 2 (VPAC2R). […]

Consider `COc1ccc2cc(-c3cc(-c4cc(C(F)(F)F)ccc4F)nn3[C@@H](C)c3ccc(C(=O)NCCC(=O)O)cc3)ccc2c1` [GRA1, N-[4-((1S)-1-{3-(2-fluoro-5-trifluoromethylphenyl)-5-[6-methoxynaphth-2-yl]-1H-pyrazol-1-yl}ethyl)benzoyl]-β-alanine], for which, under “10 µM GRA1, 2 nM glucagon”, the “Inhibition of glucagon-induced glycogen loss” value was “completely prevented”. Also, the inhibition at 0.3 µM (Homo sapiens, Hepatocyte, 0.3 µM GRA1, 2 nM glucagon, read-out: Inhibition of glucagon-induced glycogen loss) is ~50%.

These data come from PMC3501516, “Anti-Diabetic Efficacy and Impact on Amino Acid Metabolism of GRA1, a Novel Small-Molecule Glucagon Receptor Antagonist” (PLoS ONE, 2012).
